Results from patent US8674118B2, “Compounds and methods for the treatment or prevention of flavivirus infections” (priority 2005, dated 2014).
Structures can show the parent of a compound that is named as a salt.

The molecules below were run on HCV RNA replication (replicon cell lines Huh-7, 5.2 and ET) (assay: Cell-Based Luciferase Reporter HCV RNA Replication Assay). Conditions: Hepatitis C virus, Huh-7, 96 h, Huh-7, 5.2 or ET replicon cells, luciferase counts after 4 days incubation; read-out: IC50.
`CC1CCC(C(=O)N(c2cc(C3=CCCCCC3)sc2C(=O)O)C2CCCCC2)CC1` (stereo not drawn) [Compound 46, 5-cyclohept-1-enyl-3-[cyclohexyl-(4-trans-methyl-cyclohexanecarbonyl)-amino]-thiophene-2-carboxylic acid] was tested, and the IC50 was < 5 µM. For `CC1CC=C(c2cc(N(C(=O)C3CCC(C)CC3)C3CCCCC3)c(C(=O)O)s2)CC1` (stereo not drawn) [Compound 47, RS-3-[cyclohexyl-(4-trans-methyl-cyclohexanecarbonyl)-amino]-5-(4-methyl-cyclohex-1-enyl)-thiophene-2-carboxylic acid], the IC50 was < 5 µM. With `C[C@H]1CC[C@H](C(=O)N(c2cc(C3=CCCCC3)sc2C(=O)O)[C@H]2CC[C@H](n3cncn3)CC2)CC1` [Compound 48, 5-cyclohex-1-enyl-3-[(trans-4-methylcyclohexanecarbonyl)-(trans-4-[1,2,4]triazol-1-yl-cyclohexyl)-amino]-thiophene-2-carboxylic acid; hydrochloride] the IC50 was < 5 µM. `C[C@H]1CC[C@H](C(=O)N(c2cc(C3=CCCCC3)sc2C(=O)O)[C@H]2CC[C@@H](C#N)CC2)CC1` [Compound 49, 3-[(cis-4-cyanocyclohexyl)-(trans-4-methylcyclohexanecarbonyl)-amino]-5-cyclohex-1-enyl-thiophene-2-carboxylic acid] was tested, and the IC50 was < 5 µM. With `C[C@H]1CC[C@H](C(=O)N(c2cc(C3=CCCCC3)sc2C(=O)O)[C@H]2CC[C@H](C#N)CC2)CC1` [Compound 50, 3-[(trans-4-cyanocyclohexyl)-(trans-4-methyl-cyclohexanecarbonyl)-amino]-5-cyclohex-1-enyl-thiophene-2-carboxylic acid] the IC50 was < 5 µM. With `C[C@H]1CC[C@H](C(=O)N(c2cc(C3=CCCCC3)sc2C(=O)O)C2CC2)CC1` [Compound 51, 5-cyclohex-1-enyl-3-[cyclopropyl-(trans-4-methyl-cyclohexanecarbonyl)-amino]-thiophene-2-carboxylic acid] the IC50 was 5 to 25 µM. `C[C@H]1CC[C@H](C(=O)N(c2cc(C3=CCCCC3)sc2C(=O)O)[C@H]2CC[C@H](C)CC2)CC1` [Compound 52, 5-cyclohex-1-enyl-3-[(trans-4-methyl-cyclohexanecarbonyl)-(trans-4-methyl-cyclohexyl)-amino]-thiophene-2-carboxylic acid] was tested, and the IC50 was < 5 µM. In the case of `C[C@H]1CC[C@H](C(=O)N(c2cc(C3=CCCCC3)sc2C(=O)O)[C@H]2CC[C@@H](C)CC2)CC1` [Compound 53, 5-cyclohex-1-enyl-3-[(trans-4-methyl-cyclohexanecarbonyl)-(cis-4-methyl-cyclohexyl)-amino]-thiophene-2-carboxylic acid], the IC50 is reported as < 5 µM. With `C[C@H]1CC[C@H](C(=O)N(c2cc(C3=CCCCC3)sc2C(=O)O)[C@H]2CC[C@@H](F)CC2)CC1` [Compound 57, 5-cyclohex-1-enyl-3-[(cis-4-fluoro-cyclohexyl)-(trans-4-methyl-cyclohexanecarbonyl)-amino]-thiophene-2-carboxylic acid] the IC50 was < 5 µM. `CC1=CCCCC1c1cc(N(C(=O)C2CCC(C)CC2)C2CCC(=O)CC2)c(C(=O)O)s1` (stereo not drawn) [Compound 58, RS-3-[(4-trans-methyl-cyclohexanecarbonyl)-(4-oxo-cyclohexyl)-amino]-5-(2-methyl-cyclohex-2-enyl)-thiophene-2-carboxylic acid] gave an IC50 of 5 to 25 µM.

Same assay, conditions: Huh-7, 5.2 or ET replicon cells, luciferase counts after 4 days incubation; read-out: IC50
For `CC1CCC(C(=O)N(c2cc(C3=CCCCC3)sc2C(=O)O)C2CCC(C(C)(C)C)CC2)CC1` (stereo not drawn) [Compound 45, 3-[(4-cis-tert-butyl-cyclohexyl)-(4-trans-methyl-cyclohexanecarbonyl)-amino]-5-cyclohex-1-enyl-thiophene-2-carboxylic acid], the IC50 was < 5 µM. In the case of `CC1CCC(C(=O)N(c2cc(C3=CCCC(C)C3)sc2C(=O)O)C2CCC(O)CC2)CC1` (stereo not drawn) [Compound 61, RS-3-[(4-trans-hydroxy-cyclohexyl)-(4-trans-methyl-cyclohexanecarbonyl)-amino]-5-(5-methyl-cyclohex-1-enyl)-thiophene-2-carboxylic acid], the IC50 is reported as < 5 µM.
